Reference: patent US11584744B2 (UNIVERSITY OF WASHINGTON, priority 2017, dated 2023)
In brackets after ≈: the same amount, converted by molar mass. Several values for one entry are separate records, joined by “and”; a condition that tells them apart may be missing. Equal entries are not always repeated. Where two headings read alike, the source gives them in different places.

Experiments:
E. faecium (ATCC 19434) = assay: MIC susceptibility testing; format: cell-based; conditions: Enterococcus faecium, ATCC19434; read-out: E. faecium (ATCC 19434) MIC
Summary of the method: (§1)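 CLSI broth microdilution with two-fold compound dilutions, in triplicate; cells added in medium at 1×10^6 CFUs/mL, DMSO ≤0.5%. Media: MHB for S. aureus, CA-MHB for E. coli and E. faecium, CA-MHB plus 3% laked horse blood for S. pyogenes (5% CO2).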

[1] = tested on: S. epidermidis (ATCC 12228); assay: MIC susceptibility testing; format: cell-based; conditions: Staphylococcus epidermidis, ATCC12228; read-out: S. epidermidis (ATCC 12228) MIC
E. faecalis (ATCC 29212) = assay: MIC susceptibility testing; format: cell-based; conditions: Enterococcus faecalis, ATCC29212; read-out: E. faecalis (ATCC 29212) MIC
[2] = tested on: S. epidermidis (ATCC 49134); assay: MIC susceptibility testing; format: cell-based; conditions: Staphylococcus epidermidis, ATCC49134; read-out: S. epidermidis (ATCC 49134) MIC
S. pyogenes (ATCC 19615) = assay: MIC susceptibility testing; format: cell-based; conditions: Streptococcus pyogenes
[3] = Liver microsome stability; format: in vitro ADME
Experimental: Microsome stability. Liver microsome stability assays were done by contract research laboratory, Wuxi AppTec Co. (Hubei, China). Briefly, compounds at 1 μM concentration were incubated in singlet with human or CD-1 mouse liver microsomes for 6 time points (0, 5, 10, 20, 30, and 60 min). Loss of parent compound was quantified by liquid chromatography/tandem mass spectrometry.

[4] = tested on: E. faecium VRE (ATCC 51559); assay: MIC susceptibility testing; format: cell-based, Enterococcus faecium; conditions: for MIC: Enterococcus faecium
Summary of the method: as §1

S. aureus = assay: Serum shift assays (MIC with and without 50% human serum); format: cell-based, Staphylococcus aureus; conditions: for MIC: Staphylococcus aureus
Summary of the method: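 MICs run in triplicate with and without 50% heat-inactivated pooled human serum in MHB. Threefold compound dilutions (≤0.5% DMSO), inoculum from 1*10^8 CFUs/mL diluted 1:100, incubated ~20 h at 37° C. MIC = lowest concentration giving ≥90% growth inhibition.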

[5] = Cytotoxicity testing on mammalian cells (AlamarBlue, 48 hours); format: cell-based; conditions: human
Summary of the method: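 CRL-8155 human lymphoblasts and HepG2 cells exposed to serial compound dilutions for 48 h. Viability read by AlamarBlue in quadruplicate. EC50 from non-linear regression.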

[6] = biological target: recombinant S. aureus MetRS enzyme (Staphylococcus aureus, UniProt A0A0H2XID2); assay: Inhibition of SaMetRS, ATP depletion assay; format: biochemical
Summary of the method: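 IC50 values come from sigmoidal fits of percent inhibition, based on ATP left after 120 min as measured by Kinase-Glo. Substrates were 20 μM L-methionine and 150 nM ATP, added after compounds sat 15 min at room temperature with 25 nM His-tagged SaMetRS, bulk E. coli tRNA, pH 7.9 HEPES buffer and 2% DMSO.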

[7] = ATCC19615, 18 h, medium with 3% laked horse blood, read-out: S. pyogenes (ATCC 19615) MIC
[8] = ATCC19615, S. pyogenes ATCC 19615, read-out: (H) S. pyogenes (ATCC 19615) MIC
[9] = human, human liver microsomes, read-out: Microsome stability: Human T½
[10] = mouse liver microsomes, CD-1 mouse, read-out: Microsome stability: Mouse T½
[11] = E. faecium ATCC 51559, read-out: (I) E. faecium (ATCC 51559) MIC
[12] = read-out: E. faecium VRE (ATCC 51559) MIC
[13] = 50% human serum, read-out: Avg MIC ± SEM (+50% serum)
[14] = no serum, read-out: Avg MIC ± SEM (no serum)
[15] = CRL-8155 cells (human lymphoblasts), read-out: Mamm. cells (CRL8155) CC50
[16] = HepG2 cells (human hepatocellular carcinoma), read-out: Mamm. cells (HepG2) CC50
[17] = read-out: (B) MetRS (S. aureus) IC50
[18] = recombinant enzyme, lower limit of detection 0.025 μM, read-out: MetRS S. aureus (enzyme) IC50

Chain of recombinant S. aureus MetRS enzyme (A0A0H2XID2 2-657): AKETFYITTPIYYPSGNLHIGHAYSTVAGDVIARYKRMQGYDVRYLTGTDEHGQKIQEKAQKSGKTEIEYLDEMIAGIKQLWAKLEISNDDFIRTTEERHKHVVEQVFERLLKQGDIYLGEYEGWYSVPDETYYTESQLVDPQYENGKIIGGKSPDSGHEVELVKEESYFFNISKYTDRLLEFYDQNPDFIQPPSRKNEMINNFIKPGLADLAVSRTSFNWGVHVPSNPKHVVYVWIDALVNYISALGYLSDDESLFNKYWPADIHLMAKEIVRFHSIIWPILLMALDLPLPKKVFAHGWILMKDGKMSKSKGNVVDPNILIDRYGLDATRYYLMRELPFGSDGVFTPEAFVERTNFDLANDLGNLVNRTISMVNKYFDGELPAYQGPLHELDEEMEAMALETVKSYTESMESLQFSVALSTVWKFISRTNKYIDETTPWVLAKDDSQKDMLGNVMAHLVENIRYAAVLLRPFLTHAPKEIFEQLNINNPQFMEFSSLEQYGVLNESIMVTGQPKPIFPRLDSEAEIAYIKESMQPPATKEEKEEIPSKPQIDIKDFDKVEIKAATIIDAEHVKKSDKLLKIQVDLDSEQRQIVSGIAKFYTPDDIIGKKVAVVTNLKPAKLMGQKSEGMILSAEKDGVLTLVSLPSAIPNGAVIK

Row | SMILES | MIC (E. faecium (ATCC 19434)) | MIC [1] | MIC (E. faecalis (ATCC 29212)) | MIC [2] | MIC (S. pyogenes (ATCC 19615); [7]) | MIC (S. pyogenes (ATCC 19615); [8]) | half-life at 1 μM [3, 9] | half-life at 1 μM [3, 10] | (I) E. faecium (ATCC 51559) MIC ([4]; E. faecium ATCC 51559) | MIC [4, 11] | MIC [4, 12] | MIC (S. aureus; [13]) | MIC (S. aureus; [14]) | CC50 at 48 h [5, 15] | CC50 at 48 h [5, 16] | IC50 [6, 17] | IC50 [6, 18] | Avg MIC ± SEM (+50% serum) (S. aureus; 50% human serum)
1 | CCn1c(Cc2ccc(OC)cc2Cl)cn(Cc2nc3nc(Cl)ccc3[nH]2)c1=O [Compound 2093, 1-({5-chloro-1H-imidazo[4,5-b]pyridin-2-yl}methyl)-4-[(2-chloro-4-methoxyphenyl)methyl]-3-ethyl-2,3-dihydro-1H-imidazol-2-one] | 0.078 µg/mL (≈ 0.18 µM) | 0.625 µg/mL (≈ 1.45 µM) | 0.156 µg/mL (≈ 0.361 µM) | 1.25 µg/mL (≈ 2.89 µM) | 1.25 µg/mL (≈ 2.89 µM) | 0.678 µg/mL (≈ 1.57 µM) | 8.3 min | 3.2 min | 0.0387 µg/mL | 0.0507 µg/mL (≈ 0.117 µM) | 0.078 µg/mL (≈ 0.18 µM) | 9.59 ± 1.71 µg/mL | 0.036 ± 0.01 µg/mL | > 21.6 µg/mL | > 21.6 µg/mL | < 25 nM | < 25 nM | 
2 | CCn1c(Cc2ccc(OC)cc2Cl)cn(Cc2nc3nc(F)ccc3[nH]2)c1=O [Compound 2114, 4-[(2-chloro-4-methoxyphenyl)methyl]-3-ethyl-1-({5-fluoro-1H-imidazo[4,5-b]pyridin-2-yl}methyl)-2,3-dihydro-1H-imidazol-2-one] | 0.078 µg/mL (≈ 0.188 µM) | 1.25 µg/mL (≈ 3.01 µM) | 0.625 µg/mL (≈ 1.5 µM) | 1.25 µg/mL (≈ 3.01 µM) |  | 0.754 µg/mL (≈ 1.81 µM) | 15.2 min | 7.7 min |  |  | 0.156 µg/mL (≈ 0.375 µM) |  |  | > 20.8 µg/mL | > 20.8 µg/mL | < 25 nM | < 25 nM | 
3 | CCn1c(Cc2ccc(Cl)cc2Cl)cn(Cc2nc3nc(F)ccc3[nH]2)c1=O [Compound 2062, 4-[(2,4-dichlorophenyl)methyl]-3-ethyl-1-({5-fluoro-1H-imidazo[4,5-b]pyridin-2-yl}methyl)-2,3-dihydro-1H-imidazol-2-one] | 0.313 µg/mL (≈ 0.745 µM) |  | 1.25 µg/mL (≈ 2.97 µM) | 1.25 µg/mL (≈ 2.97 µM) |  |  | 12.6 min | 8.4 min |  |  | 0.313 µg/mL (≈ 0.745 µM) | 11.8 ± 4.03 µg/mL | 0.057 ± 0.004 µg/mL | > 21 µg/mL | > 21 µg/mL | < 25 nM | < 25 nM | 
4 | COc1cc(Cl)c(-c2cccc3nc(Cc4nc5nc(Cl)ccc5[nH]4)cn23)cc1OC [Compound 2144, 2-({5-chloro-1H-imidazo[4,5-b]pyridin-2-yl}methyl)-5-(2-chloro-4,5-dimethoxyphenyl)imidazo[1,2-a]pyridine] | 0.0195 µg/mL (≈ 0.0429 µM) | 0.156 µg/mL (≈ 0.343 µM) | 0.0195 µg/mL (≈ 0.0429 µM) | 0.313 µg/mL (≈ 0.689 µM) | 1.25 µg/mL (≈ 2.75 µM) |  | 16.4 min | 6.5 min | 0.0140, μg/ml | 0.0126 µg/mL (≈ 0.0277 µM) | 0.0195 µg/mL (≈ 0.0429 µM) | ~2 µg/mL | 0.036 ± 0.01 µg/mL | > 11.3 µg/mL | > 11.3 µg/mL | < 25 nM | < 25 nM | 2.06 µg/mL and 2.055 ± 0.51 µg/mL
5 | Fc1ccc2nc(NCCCNCc3cc(Cl)cc(Cl)c3)[nH]c2n1 [Compound 1614, [(3,5-dichlorophenyl)methyl][3-({5-fluoro-3H-imidazo[4,5-b]pyridin-2-yl}amino)propyl]amine] | 0.625 µg/mL (≈ 1.7 µM) | 5 µg/mL (≈ 13.6 µM) | 1.25 µg/mL (≈ 3.39 µM) | 10 µg/mL (≈ 27.2 µM) | > 10 µg/mL |  | 9.8 min | 6.6 min |  |  | 0.625 µg/mL (≈ 1.7 µM) | 42.7 ± 4.1 µg/mL | 2.47 ± 0.35 µg/mL | 14.8 µg/mL (≈ 40.2 µM) | > 18.4 µg/mL |  | < 25 nM | 
6 | CC(=O)NC[C@H]1CN(c2ccc(N3CCOCC3)c(F)c2)C(=O)O1 [LNZ, linezolid] | 2.5 µg/mL (≈ 7.41 µM) | 0.625 µg/mL (≈ 1.85 µM) | 2.5 µg/mL (≈ 7.41 µM) | 0.625 µg/mL (≈ 1.85 µM) | 1.25 µg/mL (≈ 3.71 µM) |  |  |  |  |  | 1.25 µg/mL (≈ 3.71 µM) | 1.89 ± 0.1 µg/mL | 1.57 ± 0.1 µg/mL | > 33.7 µg/mL | > 33.7 µg/mL |  | > 10000 nM | 
7 | Fc1ccc2nc(NCCCN[C@@H]3CCNc4c(Cl)cc(Cl)cc43)[nH]c2n1 [Compound 1717, (4R)-6,8-dichloro—N-[3-({5-fluoro-3H-imidazo[4,5-b]pyridin-2-yl}amino)propyl]-1,2,3,4-tetrahydroquinolin-4-amine, reference compound] | 0.039 µg/mL (≈ 0.0953 µM) | 0.156 µg/mL (≈ 0.381 µM) | 0.078 µg/mL (≈ 0.191 µM) | 0.313 µg/mL (≈ 0.765 µM) | 2.5 µg/mL (≈ 6.11 µM) |  | 10.3 min | 10.3 min |  |  | 0.156 µg/mL (≈ 0.381 µM) | ~2 µg/mL | 0.088 ± 0.02 µg/mL | 5.8 µg/mL (≈ 14.2 µM) | 10.4 µg/mL (≈ 25.4 µM) |  | < 25 nM | 2.066 ± 0.19 µg/mL
